From patent US6743211B1, “Devices and methods for enhanced microneedle penetration of biological barriers” (Georgia Tech Research Corporation, priority 1999, dated 2004)

Assay type: in vitro ADME, human
Method: To determine if microfabricated microneedles could be used to enhance transdermal drug delivery, arrays of microneedles were made using a deep plasma etching technique. Their ability to penetrate human skin without breaking was tested and the resulting changes in transdermal transport were measured.
Arrays of microneedles were fabricated having extremely sharp tips (radius of curvature less than 1 μm), and are approximately 150 μm long. Because the skin surface is not flat due to dermatoglyphics and hair, the full length of these microneedles will not penetrate the skin. All experiments were performed at room temperature (23±2° C.).
To quantitatively assess the ability of microneedles to increase transdermal transport, calcein permeability of human epidermis with and without inserted microneedle arrays was measured. Calcein crosses skin very poorly under normal circumstances and therefore represents an especially difficult compound to deliver.
Insertion of microneedles into skin was capable of dramatically increasing permeability to calcein. When microneedles were inserted and left embedded in the skin, calcein permeability was increased by more than 1000-fold. Insertion of microneedles for 10 s, followed by their removal, yielded an almost 10,000-fold increase. […]

O=C(O)CN(CC(=O)O)Cc1cc2c(cc1O)Oc1cc(O)c(CN(CC(=O)O)CC(=O)O)cc1C21OC(=O)c2ccccc21 [Calcein]
Passive permeability across unaltered skin: very low | Increase in skin permeability to calcein (human): about 25,000 fold
